Test results reported in patent US20220340542A1, “SALTS OF OMECAMTIV MECARBIL AND SOLID FORMS THEREOF” (SYNTHON B.V., priority 2019, published 2022).
Counter-ions that a name gives are not always drawn.

Key:
[1] = Solid form stability when kept at elevated temperature and relative humidity; format: physicochemical; settings: 70% to 100% relative humidity, between 20 and 40 days
Procedure: The Form II can be characterized by XRPD pattern having 2θ values 5.0°, 9.3° and 16.5° degrees 2 theta (f 0.2 degrees 2 theta). The solid Form II can be also characterized by XRPD pattern having 2θ values 5.0°, 9.3°, 16.5°, 18.6° and 24.6° degrees 2 theta (±0.2 degrees 2 theta). The solid form can be further characterized by XRPD pattern described in the following table:
The Form III can be characterized by XRPD pattern having […] 14.3°, 19.3° and 25.8° degrees 2 theta (±0.2 degrees 2 theta). The solid […] can be also characterized by XRPD pattern having 2θ values 5.4°, 7.5°, 14.3°, 19.3° and 25.8° degrees 2 theta (±0.2 degrees 2 theta). The solid form can be further characterized by XRPD pattern described in the following table: […]

[2] = Solubility of Omecamtiv mecarbil salts in water solution (aqueous buffer) at different pH; format: physicochemical; settings: for Category of solubility (Descriptive Term): USP / Ph. Eur. descriptive terms; for Solubility in comparison with Omecamtiv mecarbil dihydrochloride monohydrate salt: water solution at pH 1.2, 4.5 and 6.8
Procedure: The solubility of prepared salts was tested in water solution at different pH (1.2, 4.5 and 6.8) and compared to Omecamtiv mecarbil dihydrochloride monohydrate salt prepared according to a procedure disclosed in WO2006009726 application. It can be concluded that solubilities of Omecamtiv mecarbil maleic acid salt, Form A, Omecamtiv mecarbil fumaric acid (1:1), Form I, Omecamtiv mecarbil malonic acid (1:1), Form I, Omecamtiv mecarbil adipic acid (1:1.5), Form I, Omecamtiv mecarbil sulfuric acid (1:1), Forms I, II and III salts are lower in comparison with Omecamtiv mecarbil dihydrochloride monohydrate salt.

| SMILES | Solid form transformation on storage ([1]; temperature between 40° C. and 80° C.) | Category of solubility (Descriptive Term) ([2]; aqueous buffer pH 1.2) | Category of solubility (Descriptive Term) ([2]; aqueous buffer pH 4.5) | Category of solubility (Descriptive Term) ([2]; aqueous buffer pH 6.8) | Solubility in comparison with Omecamtiv mecarbil dihydrochloride monohydrate salt ([2]; Form I) | Solid form transformation on storage ([1]; temperature between 40° C. and 70° C.) | Solubility in comparison with Omecamtiv mecarbil dihydrochloride monohydrate salt ([2]; Form A) | Solubility in comparison with Omecamtiv mecarbil dihydrochloride monohydrate salt ([2]; listed as Omecamtiv mecarbil sulfuric acid (1:1), Forms I, II and III) |
| --- | --- | --- | --- | --- | --- | --- | --- | --- |
| COC(=O)N1CCN(Cc2cccc(NC(=O)Nc3ccc(C)nc3)c2F)CC1 [Omecamtiv mecarbil sulfuric acid salt] | transformed to Omecamtiv mecarbil sulfuric acid salt, Form III | – | – | – | – | – | – | – |
| COC(=O)N1CCN(Cc2cccc(NC(=O)Nc3ccc(C)nc3)c2F)CC1 [Salt with HC1, Omecamtiv mecarbil dihydrochloride monohydrate salt, reference compound] | – | Freely soluble ((100-1000 mg/mL)) | Freely soluble ((100-1000 mg/mL)) | Freely soluble ((100-1000 mg/mL)) | – | – | – | – |
| COC(=O)N1CCN(Cc2cccc(NC(=O)Nc3ccc(C)nc3)c2F)CC1 [Salt with adipic acid (1:1.5), Form I, Omecamtiv mecarbil adipic acid (1:1.5) salt] | – | Sparingly soluble ((10-33 mg/mL)) | Sparingly soluble ((10-33 mg/mL)) | Very slightly soluble ((0.1-1 mg/mL)) | lower | – | – | – |
| COC(=O)N1CCN(Cc2cccc(NC(=O)Nc3ccc(C)nc3)c2F)CC1 [Salt with fumaric acid (1:1), Form I, Omecamtiv mecarbil fumaric acid (1:1) salt] | – | Very slightly soluble ((0.1-1 mg/mL)) | Sparingly soluble ((10-33 mg/mL)) | Sparingly soluble ((10-33 mg/mL)) | lower | transformed to Omecamtiv mecarbil fumaric acid (1:1), Form II | – | – |
| COC(=O)N1CCN(Cc2cccc(NC(=O)Nc3ccc(C)nc3)c2F)CC1 [Salt with fumaric acid (1:2), Form I, Omecamtiv mecarbil fumaric acid (1:2) salt] | – | Freely soluble ((100-1000 mg/mL)) | Freely soluble ((100-1000 mg/mL)) | Freely soluble ((100-1000 mg/mL)) | comparable | – | – | – |
| COC(=O)N1CCN(Cc2cccc(NC(=O)Nc3ccc(C)nc3)c2F)CC1 [Salt with maleic acid, Form A, Omecamtiv mecarbil maleic acid salt] | – | Sparingly soluble ((10-33 mg/mL)) | Sparingly soluble ((10-33 mg/mL)) | Very slightly soluble ((0.1-1 mg/mL)) | – | – | lower | – |
| COC(=O)N1CCN(Cc2cccc(NC(=O)Nc3ccc(C)nc3)c2F)CC1 [Salt with malonic acid (1:1), Form I, Omecamtiv mecarbil malonic acid (1:1) salt] | – | Sparingly soluble ((10-33 mg/mL)) | Sparingly soluble ((10-33 mg/mL)) | Very slightly soluble ((0.1-1 mg/mL)) | lower | – | – | – |
| COC(=O)N1CCN(Cc2cccc(NC(=O)Nc3ccc(C)nc3)c2F)CC1 [Salt with sulfuric acid (1:1), Forms I, II and III] [Omecamtiv mecarbil sulfuric acid salt] | – | Sparingly soluble ((10-33 mg/mL)) | Sparingly soluble ((10-33 mg/mL)) | Sparingly soluble ((10-33 mg/mL)) | – | – | – | lower |
